According to US9173876B2, “Preparation and therapeutic applications of (2S,3R)-N-2-((3-pyridinyl)methyl)-1-azabicyclo[2.2.2]oct-3-yl)-3,5-difluorobenzamide” (Targacept, Inc., priority 2009, dated 2015):

Columns and labels:
[1] = cited from earlier work
[2] = Aqueous solubility (salt screen); conditions: target 10 mg/ml at 25° C. unbuffered
db/db mouse = assay: Murine model of type 2 diabetes mellitus (db/db mouse); format: in vivo; conditions: MLA 3 mg/kg daily by gavage with 1.0 mg/kg test article
Excerpt: The db/db mouse, a well established model of type 2 diabetes mellitus, is a leptin-deficient mutant that expresses an obese phenotype and also commonly expresses metabolic symptoms including hyperglycemia, hyperlipidemia and hyperinsulinemia (Halaas et al., 1995 and Lee et al., 1996). This experimental animal model of diabetes was employed in a study designed to determine the effects of (2S,3R)—N-2-((3-pyridinyl)methyl)-1-azabicyclo[2.2.2]oct-3-yl)-3,5-difluorobenzamide on body mass and several additional metabolic parameters.
In this study, (2S,3R)—N-2-((3-pyridinyl)methyl)-1-azabicyclo[2.2.2]oct-3-yl)-3,5-difluorobenzamide was repeatedly administered orally (via gavage) at 1.0 mg/kg once daily starting from the age of approximately 3 weeks and continuing throughout the 7-week study. Nondiabetic heterozygote littermate mice (db/+; designated “Db”) were used as controls. Body weight and food intake were determined twice weekly. The α7 antagonist methyllycaconitine (MLA) was also given concurrently via gavage at 3 mg/kg daily to selected cohorts of db/db (designated “db”) or db/+mice. At the end of the 7-week dosing regimen, total growth rates (overall body weight gain) and average daily food intake were calculated. In addition, glucose levels were assessed in mice fasted overnight. Furthermore, blood sample analytes from mice fasted overnight were collected for measurements of tumor necrosis factor-a (TNF-α), triglycerides and glycosylated hemoglobin (HbA1c). All data are expressed as mean±SEM. For each parameter investigated, differences among all groups were compared by one-way ANOVA with post-hoc Neuman-Keuls multiple comparison test.

[3] = tested on: STZ rat model of diabetic neuropathy; assay: Streptozotocin (STZ)-induced diabetic neuropathy, Von Frey allodynia; format: in vivo; conditions: 150 mg/kg i.p.
Method: Diabetes was induced by a 0.5 ml injection of streptozotocin (60 mg/kg) dissolved in citrate buffer (pH=6) into the tail vein of each rat. The development of diabetes was confirmed by measuring the blood glucose levels (BGL) of all animals on study day 3 (BGL>300 mg/dL). […] These animals were tested again for their BGL at study day 23.
(2S,3R)—N-2-((3-pyridinyl)methyl)-1-azabicyclo[2.2.2]oct-3-yl)-3,5-difluorobenzamide (0.1, 1 or 10 mg/kg p.o.) was administered as a solution of the hydrochloride salt in water once daily starting on study day 14 or study day 16 and continuing through study day 21 or 23, respectively. The control article gabapentin (in 0.9% saline, 150 mg/kg i.p.) was only administered on allodynia test days. Test item, vehicle or control article administration was based on evaluation of allodynia on study day 14. If allodynia was not present on study day 14, the animal was evaluated again at study day 16. Pain response was measured either on study days 14 and 21 or 16 and 23, 30 minutes after Test Item administration.
For the allodynia assessments, Von Frey filaments were used according to the methods of Chaplan and colleagues (1994). Briefly, the rats were placed in an enclosure and positioned on a metal mesh surface, but allowed to move freely. The rats' cabins were covered with red cellophane to diminish environmental distributions. The test began after cessation of exploratory behavior.
When the tip of a Von Frey fiber of given length and diameter was pressed against the skin at right angles, the force of application increases as long as the researcher continued to advance the probe until the fiber bent. After the fiber bent, the probe was advanced, causing the fiber to bend more, but without additional force being applied. The animal would indicate sensation by pulling back its paw. In the absence of a paw withdrawal response to the initially selected filament, a stronger stimulus was presented: in the event of paw withdrawal, the next weaker stimulus was chosen. In this fashion, the resulting pattern of positive and negative responses was used to determine the paw withdrawal threshold.
The set of Von Frey monofilaments provide an approximate logarithmic scale of actual force and a linear scale of perceived intensity. Below is a table showing the force (g) and its corresponding size of monofilaments.
All normally distributed data are presented as means±SEM, as well as the animals' individual values followed by a student T-test (Software: Microsoft® Excel). A p value<0.05 is considered to represent a significant difference. Due to the non-normal distribution of the allodynia data, descriptions of those data are provided as both mean (+SEM) and median values in order to represent their imprecise nature and skewed distribution.

CD-1 mice = assay: Formalin test; format: in vivo, mouse; conditions: positive control, 5 mg/kg s.c.
Method: Subjects (adult male CD-1 mice (Charles River, Raleigh, N.C.) weighing approximately 20-25 grams) were removed from their home cage and weighed, then placed in a clear Plexiglas™ observation box for an acclimation period of 20-30 minutes. Mice were then removed from the observation chambers and (2S,3R)—N-2-((3-pyridinyl)methyl)-1-azabicyclo[2.2.2]oct-3-yl)-3,5-difluorobenzamide (as the hydrochloride salt in 0.9% saline) (1, 3 or 10 mg/kg s.c. (calculated with respect to the free base)), morphine (5 mg/kg; s.c.) or 0.9% saline vehicle was administered subcutaneously in a volume of 1 mL/kg. Mice were then returned to the chamber for the predetermined pretreatment time of 30 minutes for (2S,3R)—N-2-((3-pyridinyl)methyl)-1-azabicyclo[2.2.2]oct-3-yl)-3,5-difluorobenzamide and morphine.
The subject's assigned paw was grasped gently and formalin solution was injected into the paw intra-dermally in the middle on the dorsal side. Once injected, the subject was immediately returned to its observation chamber and a timer was started to mark the beginning of Phase I. Each subject was videotaped for the entire 40-minute session. […] The time spent licking during that 1 min interval was recorded, and the presence or absence of paw favoring was noted.
For data analyses, phase I of the test was defined as 0 to 5 minutes after formalin injection, and phase II was defined as 20 to 40 minutes after formalin injection. The time spent licking during the 1 minute intervals during those time frames was recorded and graphed as mean±S.E.M. For comparisons across treatment groups, 1-way analyses of variance (ANOVAs) were performed for each phase of the session with treatment as the […] variable. Post-hoc analyses were performed when appropriate to determine specific group differences.

Sprague-Dawley rats = assay: Complete Freund's adjuvant (CFA)-induced thermal hyperalgesia; format: in vivo, rat; conditions: reference standard, 3 mg/kg s.c., 1 hour after dosing
Excerpt: Briefly, adult male Sprague-Dawley rats (BioLasco, Taiwan) weighing 180±20 g on receipt were randomly assigned to treatment groups of n=8 per group. […] A subject was placed within a plastic box atop an elevated glass floor and a light beam located under the glass floor was directed at the plantar surface of the right hind paw. The time required for the animal to withdraw the paw from the thermal stimulus was automatically recorded. The intensity of the light was adjusted to evoke an average group baseline latency from 12-14 seconds (pre-CFA) and a cut-off latency of 20 seconds was imposed. The latency for paw withdrawal was obtained for each rat and defined as the heat pain threshold.
Test substance, morphine and vehicle were administered by subcutaneous (s.c.) injection at time 0. The post-treatment level of thermal hyperalgesia was then measured at 60 minutes post-treatment. One-way ANOVA followed by Dunnett's test was applied for comparison between test substance treated groups and vehicle control group. Activity was considered significant at the P<0.05 level.

O=C(O)c1ccc2ccccc2c1O [1-Hydroxy-2-Naphthoic acid]
LogP [1]: 3.29

O=S(=O)(O)c1ccccc1 [Benzene sulfonic acid]
LogP [1]: 0.47

O=C(O)[C@H](O)[C@@H](O)[C@H](O)[C@H](O)CO [D-Gluconic acid]
LogP [1]: −3.18

O=C(N[C@@H]1C2CCN(CC2)[C@H]1Cc1cccnc1)c1cc(F)cc(F)c1.O=C(O)/C=C/C(=O)O [Fumarate mono salt]
Aqueous Solubility [2]: >10000 µg/mL

O=C(O)/C=C/C(=O)O [Fumaric acid]
LogP [1]: −0.01

O=C(O)CNC(=O)c1ccccc1 [Hippuric acid]
LogP [1]: 0.31

Cl.O=C(N[C@@H]1C2CCN(CC2)[C@H]1Cc1cccnc1)c1cc(F)cc(F)c1 [Hydrochloride mono salts]
Aqueous Solubility [2]: >10000 µg/mL

N[C@@H](CC(=O)O)C(=O)O [L-Aspartic acid]
LogP [1]: −0.67

CCN1C[C@]2(COC(=O)c3ccccc3N3C(=O)C[C@H](C)C3=O)CC[C@H](OC)[C@@]34[C@@H]5C[C@H]6[C@H](OC)[C@@H]5[C@](O)(C[C@@H]6OC)[C@@](O)([C@@H](OC)[C@H]23)[C@@H]14 [MLA, methyllycaconitine, reference compound]
Weight gain on co-administration of MLA with the difluorobenzamide (db/db mouse; FIG. 15): failed to show the reduced weight gain
Daily average food consumption on co-administration of MLA with the difluorobenzamide (db/db mouse; FIG. 16): failed to show the reduced daily average food consumption
Reversal of the fasting plasma glucose effect by co-administration of MLA (db/db mouse; FIG. 17): not reversed
Effect of MLA co-administration on the reduction in glycosylated HbA1c (db/db mouse; FIG. 18): attenuated
Effect of MLA co-administration on the TNF alpha reduction (db/db mouse; FIG. 19): inhibited
Effect of MLA co-administration on the reduction in triglycerides (db/db mouse; FIG. 20): not attenuated

O=C(O)/C=C\C(=O)O [Maleic acid]
LogP [1]: −0.01

O=C(N[C@@H]1C2CCN(CC2)[C@H]1Cc1cccnc1)c1cc(F)cc(F)c1.O=P(O)(O)O [Phosphate mono salts]
Aqueous Solubility [2]: >10000 µg/mL

CCC(=O)O [Propionic acid]
LogP [1]: 0.25

NCC1(CC(=O)O)CCCCC1 [gabapentin, reference compound]
Paw withdrawal force post treatment, median ([3]; study days 14/16): 60 g
Paw withdrawal force post treatment, mean±SEM ([3]; study days 14/16, pre treatment 22.77±3.77 g, vehicle 26.61±4.41 g): 45.62 ± 4.24 g
Paw withdrawal force post treatment, median ([3]; study days 21/23): 60 g
Paw withdrawal force post treatment, mean±SEM ([3]; study days 21/23, pre treatment 28.23±4.91 g, vehicle 20.46±3.31 g): 50.88 ± 4.12 g
Tactile allodynia (Von Frey) ([3]; positive control, all treatment days, vs pretreatment and vehicle, p<0.01): reversed the tactile allodynia significantly

CN1CC[C@]23c4c5ccc(O)c4O[C@H]2[C@@H](O)C=C[C@H]3[C@H]1C5 [morphine, reference compound]
Time spent licking, phase I and phase II (CD-1 mice): efficacious in both phases of the test
Analgesic effect on CFA-induced thermal hyperalgesia (Sprague-Dawley rats): significant analgesic activity

Cc1ccc(S(=O)(=O)O)cc1 [p-Toluene sulfonic acid]
LogP [1]: 0.93
